Results taken from article PMC8187357 (Communications Biology, 2021).

Key:
PD-L1 [1] = target: T1, PD-L1 (Macaca fascicularis, UniProt G7PSE7); experiment: Rescue of IFN-γ release inhibited by PD-L1, monkey PBMC; type: cell-based; details: n=1
Method: (§1) The ability of peptides, peptidomimetics, and small molecules were analyzed for their ability to rescue T-cell proliferation or IFN-γ release from the inhibitory activity of PD-L1 or PD-L2 in a splenocyte/PBMC-based functional assay as per the protocols reported in publication. […] For all in vitro assays, test agent stock was prepared in water and diluted further in the assay media to achieve test concentrations. Each experimental condition was carried out in triplicates. Percent rescue for a given test compound concentration was calculated by normalizing individual percent test agent proliferation or IFN-γ release values to percent anti-CD3 and anti-CD28 antibodies stimulated proliferation or IFN-γ release. EC50 values were derived by plotting transformed data into non-linear fit in sigmoidal dose–response curve using GraphPad Prism software (Version 7).

purinergic P2X, P2Y = experiment: CEREP 80 panel binding: purinergic; details: 10 µM
Method: (§2) CEREP 80 panel assay was carried out by Eurofins Cerep Panlabs facility at France. A series of binding assays was carried out to understand the off-target toxicity of CA-170. CA-170 was tested at 10 μM test concentration in duplicates. Compound binding was calculated as a % inhibition of the binding of a radioactively labeled ligand specific for each target. In each experiment the respective reference compound was tested concurrently with CA-170, and the data were compared with historical values determined at Eurofins. The experiment was accepted in accordance with Eurofins validation standard operating procedure. The results are expressed as a percent of control specific binding; (measured specific binding / control specific binding) × 100 and as a percent inhibition of control specific binding; 100−(measured specific binding / control specific binding) × 100 obtained in the presence of CA-170. The IC50 values (concentration causing a half-maximal inhibition of control specific binding) and Hill coefficients (nH) were determined by non-linear regression analysis of the competition curves generated with mean replicate values using Hill equation curve fitting.

[2] = system: Neurokinin NK1, NK2, NK3 (antagonist); experiment: CEREP 80 panel binding: Neurokinin; details: 10 µM
Method: as §2

NeuropeptideY Y2 = target: T2, NeuropeptideY Y2 (Homo sapiens, UniProt P49146); experiment: Y2 assay, determination of IC50 (CEREP follow-up); type: binding
T2 construct: Eurofins Cerep Panlabs (contract laboratory)
Method: as §2
Opioid & Opioid like DOP, KOP, MOP, NOP ≤9
Nuclear receptors GR, PPARγ ≤7
Ion Channels Ca2+, Kv, Skca, […] 1
Amine transporters DA, NE, 5HT ≤1
25% effect at the highest validated testing concentration.

[3] = Phase 1, cited from earlier work
PD-L1 [4] = target: T3, PD-L1 (Mus musculus, UniProt Q9EP73); experiment: Rescue of IFN-γ release inhibited by PD-L1, mouse splenocytes; type: cell-based; details: mean ± S.D.; n=2; read-out: Mouse Splenocyte IFN-γ Rescue EC50 PD-L1
T3 construct: purchased R&D Systems 1019-B7-100
Method: The ability of peptides, peptidomimetics, and small molecules were analyzed for their ability to rescue T-cell proliferation or IFN-γ release from the inhibitory activity of PD-L1 or PD-L2 in a splenocyte/PBMC-based functional assay as per the protocols reported in publication[20]. […] For all in vitro assays, test agent stock was prepared in water and diluted further in the assay media to achieve test concentrations. Each experimental condition was carried out in triplicates. Percent rescue for a given test compound concentration was calculated by normalizing individual percent test agent proliferation or IFN-γ release values to percent anti-CD3 and anti-CD28 antibodies stimulated proliferation or IFN-γ release. EC50 values were derived by plotting transformed data into non-linear fit in sigmoidal dose–response curve using GraphPad Prism software (Version 7).

CT26 colon carcinoma = experiment: CT26 model, survival in combination with cyclophosphamide; type: in vivo, mouse; details: CT26
Method: Studies in syngeneic models including B16 melanoma metastasis model and CT26 colon carcinoma subcutaneous model were performed as described. For the Docetaxel combination experiment in CT26 model, indicated dosage of docetaxel (Source: Docetere® injection by Dr Reddy’s Laboratories) was dosed intraperitoneally to animals. For the CA-170 combination groups, CA-170 (10 mg/kg/day, oral) was dosed ~10 min after docetaxel. Animal grouping, treatment efficacy assessment and %TGI calculations were performed as mentioned above. For the CT26 experiment with cyclophosphamide, 100 mg/kg of cyclophosphamide was dosed once on day 5 intraperitoneally after cell implantation (first day of dosing for all other groups). Anti-PD1 antibody (Clone J43 from BioXcel) was dosed intraperitoneally at 100 µg/animal once every week.

PACAP,VIP1 = experiment: CEREP 80 panel binding: VIP; details: 10 µM
Method: as §2

Somatostatin sst = experiment: CEREP 80 panel binding: Somatostatin; details: 10 µM
Method: as §2

[5] = system: Cholecystokinin CCK1, CCK2; experiment: CEREP 80 panel binding: Cholecystokinin; details: 10 µM
Method: as §2

[6] = system: Amine transporters DA, NE, 5HT; experiment: CEREP 80 panel binding: Amine transporters; details: 10 µM
Method: as §2

GR, PPARγ = experiment: CEREP 80 panel binding: Nuclear receptors; details: 10 µM
Method: as §2

Prostanoid EP4, IP, TP = experiment: CEREP 80 panel binding: Prostanoid; details: 10 µM
Method: as §2

PD-L1 [7] = target: T1, PD-L1; experiment: Rescue of proliferation inhibited by PD-L1, monkey PBMC; type: cell-based; details: n=1
Method: as §1

human PBMCs = experiment: Cytokine induction in human PBMCs; type: cell-based; details: for IFNγ: 48 h, normal density, replicates
Method: To determine the potential for any unforeseen T-cell agonist activity in humans, a study was conducted where human PBMCs from healthy donors were pre-cultured either at normal density (2 × 10^5 cells/well) or at high density (1 × 10^7 cells/mL) in vitro to increase cell–cell contacts and immune scanning as described[24] and then treated with CA-170 (10 nM to 1000 nM) IL-2, TNF-α and IFN-γ cytokine release was measured in the culture supernatants at 24 and 48 h. Human PBMCs stimulated with anti-CD3 alone or anti-CD3 + anti-CD28 antibodies served as positive controls for cytokine release in this assay.

NeuropeptideY Y1,Y2 = experiment: CEREP 80 panel binding: NeuropeptideY; details: 10 µM
Method: as §2

Bombesin BB = experiment: CEREP 80 panel binding: Bombesin; details: 10 µM
Method: as §2

T2 sequence (P49146 whole entry): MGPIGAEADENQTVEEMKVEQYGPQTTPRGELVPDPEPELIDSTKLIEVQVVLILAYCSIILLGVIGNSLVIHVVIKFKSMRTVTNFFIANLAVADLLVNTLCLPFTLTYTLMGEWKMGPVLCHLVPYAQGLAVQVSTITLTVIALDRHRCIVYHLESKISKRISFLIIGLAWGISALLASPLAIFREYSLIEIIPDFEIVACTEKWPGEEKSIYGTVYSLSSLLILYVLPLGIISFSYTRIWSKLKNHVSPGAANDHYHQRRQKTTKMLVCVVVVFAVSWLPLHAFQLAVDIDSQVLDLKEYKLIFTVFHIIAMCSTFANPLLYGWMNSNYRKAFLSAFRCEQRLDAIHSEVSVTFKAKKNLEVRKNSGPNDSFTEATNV
T1 sequence (G7PSE7 19-239): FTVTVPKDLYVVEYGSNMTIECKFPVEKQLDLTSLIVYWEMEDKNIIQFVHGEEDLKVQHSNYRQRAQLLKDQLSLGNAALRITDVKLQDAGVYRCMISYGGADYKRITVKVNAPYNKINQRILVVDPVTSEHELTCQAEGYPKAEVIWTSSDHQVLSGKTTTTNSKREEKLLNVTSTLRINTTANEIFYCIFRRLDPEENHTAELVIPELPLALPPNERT
T3 sequence (Q9EP73 with tags, fused parts or gaps limits assumed): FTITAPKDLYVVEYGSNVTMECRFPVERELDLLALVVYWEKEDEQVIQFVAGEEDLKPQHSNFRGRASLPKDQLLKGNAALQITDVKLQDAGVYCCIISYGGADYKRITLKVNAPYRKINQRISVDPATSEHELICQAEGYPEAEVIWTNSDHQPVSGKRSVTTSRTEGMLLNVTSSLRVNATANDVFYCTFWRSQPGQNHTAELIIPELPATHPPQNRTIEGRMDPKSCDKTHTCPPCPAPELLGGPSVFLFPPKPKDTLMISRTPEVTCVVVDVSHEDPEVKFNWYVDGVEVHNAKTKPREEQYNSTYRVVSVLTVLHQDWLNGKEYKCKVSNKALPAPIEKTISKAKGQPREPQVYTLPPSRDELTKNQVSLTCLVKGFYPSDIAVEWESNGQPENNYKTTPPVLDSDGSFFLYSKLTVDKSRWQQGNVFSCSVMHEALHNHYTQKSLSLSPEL
Method for Plasma stability, rat: Test compounds were tested for plasma stability (test concentration of 10 μM) as per the protocols reported in publication[20].

Q: With C[C@@H](O)[C@H](NC(=O)N[C@@H](CC(N)=O)c1nc([C@@H](N)CO)no1)C(=O)O [CA-170] as the compound, how does the EC50 (PD-L1 [1]) read?
A: 97.8 nM

Q: What about the “% Inhibition of Control Specific Binding” value (purinergic P2X, P2Y) of the same compound?
A: ≤ 3%

Q: What about the “% Inhibition of Control Specific Binding” value [2] of the same compound?
A: ≤ 6%

Q: And the “EC50 value (Y2 assay taken for determination of IC50)” value (NeuropeptideY Y2; Y2)?
A: not calculable

Q: And the “effect at the highest validated testing concentration” value (NeuropeptideY Y2; Y2 concentration-response curve)?
A: less than 25%

Q: And the “peripheral T-cell activation (in words)” value ([3]; circulating CD8+ and CD4+ T cells expressing CD69, Granzyme B, OX-40)?
A: Evidence of peripheral T-cell activation

Q: And the T1/2 ([3]; oral 50 to 1200 mg)?
A: 4 to 9.5 h

Q: What about the “safety profile (in words)” value ([3]; oral 50 to 1200 mg) of the same compound?
A: acceptable safety profile

Q: What about the EC50 (PD-L1 [4]) of the same compound?
A: 34.6 nM

Q: And the “survival advantage vs vehicle + CTX (in words)” value (CT26 colon carcinoma; CA-170 3 mg/kg/day + single dose CTX 100 mg/kg)?
A: Statistically significant survival advantage

Q: And the “survival advantage vs vehicle + CTX (in words)” value (CT26 colon carcinoma; CA-170 10 mg/kg/day + single dose CTX 100 mg/kg)?
A: Statistically significant survival advantage

Q: And the “% Inhibition of Control Specific Binding” value (PACAP,VIP1)?
A: ≤ 9%

Q: And the “% Inhibition of Control Specific Binding” value (Somatostatin sst)?
A: 1%

Q: What about the “% Inhibition of Control Specific Binding” value [5] of the same compound?
A: < 0%

Q: And the “% Inhibition of Control Specific Binding” value [6]?
A: ≤ 1%

Q: And the remaining at 4 h, 10 μM (Plasma stability, rat)?
A: > 95%

Q: And the “% Inhibition of Control Specific Binding” value (GR, PPARγ)?
A: ≤ 7%

Q: What about the “% Inhibition of Control Specific Binding” value (Prostanoid EP4, IP, TP) of the same compound?
A: ≤ 5%

Q: What about the EC50 (PD-L1 [7]) of the same compound?
A: 34 nM

Q: What about the IFN-γ (human PBMCs; 24 hours, Normal density, 10nM) of the same compound?
A: BLoD

Q: What about the IFN-γ (human PBMCs; 24 hours, Normal density, 50nM) of the same compound?
A: BLoD

Q: And the IFN-γ (human PBMCs; 24 hours, Normal density, 100nM)?
A: BLoD

Q: And the IFN-γ (human PBMCs; 24 hours, Normal density, 250nM)?
A: BLoD

Q: What about the IFN-γ (human PBMCs; 24 hours, Normal density, 500nM) of the same compound?
A: BLoD

Q: And the IFN-γ (human PBMCs; 24 hours, Normal density, 1000nM)?
A: BLoD

Q: What about the IFNγ (human PBMCs; 10 nM) of the same compound?
A: BLOD

Q: What about the IFNγ (human PBMCs; 50 nM) of the same compound?
A: BLOD

Q: What about the IFNγ (human PBMCs; 100 nM) of the same compound?
A: BLOD

Q: What about the IFNγ (human PBMCs; 250 nM) of the same compound?
A: BLOD

Q: What about the IFNγ (human PBMCs; 500 nM) of the same compound?
A: BLOD

Q: What about the IFNγ (human PBMCs; 1000 nM) of the same compound?
A: BLOD

Q: What about the IFN-γ (human PBMCs; human, 24 h, 10 nM) of the same compound?
A: 2.8 ± 1.9 pg/mL

Q: What about the IFN-γ (human PBMCs; human, 24 h, 50 nM) of the same compound?
A: 1.5 ± 1.0 pg/mL

Q: And the IFN-γ (human PBMCs; human, 24 h, 100 nM)?
A: 1.5 ± 0 pg/mL

Q: What about the IFN-γ (human PBMCs; human, 24 h, 250 nM) of the same compound?
A: 4.0 ± 0.7 pg/mL

Q: What about the IFN-γ (human PBMCs; human, 24 h, 500 nM) of the same compound?
A: 6.8 ± 1.5 pg/mL

Q: And the IFN-γ (human PBMCs; human, 24 h, 1000 nM)?
A: 5.8 ± 1.4 pg/mL

Q: And the “cytokine induction (in words)” value (human PBMCs; normal and high-density culture conditions)?
A: did not induce significant levels of cytokines

Q: And the “% Inhibition of Control Specific Binding” value (NeuropeptideY Y1,Y2)?
A: ≤ 78%

Q: And the “% Inhibition of Control Specific Binding” value (Bombesin BB)?
A: < 0%
